Data taken from patent US11807685B2, “Anti-CD47 antibody and uses thereof” (THE UAB RESEARCH FOUNDATION, priority 2021, dated 2023).

What was measured:
MDA-MB-231 cells [1] = assay: In vitro cytotoxicity assay (CellTiter-Glo); format: cell-based, human; conditions: for cell viability: 3-day assay
Protocol: (§1) The 96-well plates were seeded with MDA-MB-231 and MDA-MB-468 cells at VCD of 5×10^5 cells/mL in 100 μL of DMEM/F12 complete medium with triplication. Then 100 μL of cell growth medium containing ADC or free drug was added to reach final concentrations of 0-200 nM and incubated in CO2 incubator for 72 hrs. The cytotoxicity of ADC or free drug was measured with CellTiter-Glo Luminescent Cell Viability Assay (Promega, Madison, […]) and reported as the relative viability using untreated cells as control. The IC50 value was calculated using ED50V10 Excel add-in.

MDA-MB-468 cells [2] = assay: In vitro cytotoxicity assay (CellTiter-Glo); format: cell-based, human; conditions: for cell viability: 3-day assay
Protocol: as §1

CD47 = assay: Western blotting of CD47 in GC treated MDA-MB-231 cells; format: cell-based, human; conditions: 10 nM for 3 weeks
Protocol: The non-reducing SDS-PAGE was run by loading 2 μg of mAb or ADC to Bolt™ 4 to 12%, Bis-Tris Mini Protein Gel (1.0 mm) to validate the purity and integrality of the produced anti-CD47 mAb and ADC. In Western blotting analysis, 30 μg of total cell lysis protein was loaded to gel and electro-transferred to PVDF membrane using PowerEase™ Touch 350 W Power Supply (Fisher). After blocking, the blotted membrane was probed using primary rabbit anti-mouse antibody and HRP-conjugated secondary anti-rabbit antibody (Abcam, Cambridge, UK). The blotted membrane was treated with Luminata Forte Western HRP substrate (Millipore, Boston, MA). The SDS-PAGE and Western blots were imaged with MyECL imager and quantified using ImageJ software.
The surface expression of CD47 in TNBC cell lines was analyzed using mass spectrometry (MS, Thermo Orbitrap Velos Pro) at the University of Alabama at Birmingham (UAB) MS and proteomics core facility. […] Furthermore, to confirm the CD47 upregulation by chemotherapy, we treated MDA-MB-231 cells with 10 nM GC for 3 weeks.

[3] = test system: MDA-MB-231-FLuc xenograft; assay: IVIS imaging of in vivo TNBC targeting; set-up: species or system mouse
Text: (§2) Human TNBC xenograft mouse model was generated by subcutaneously (s.c.) injecting 3×10^6 of MDA-MB-231-FLuc cells into the 6-week-old NSG (NOD scid gamma) female mice (Jackson Labs, Bar Harbor, ME). This immunocompromised model was used to evaluate the tumor targeting of our mAb and anti-TNBC efficacy of the constructed ADC. The immunocompetent mouse model was generated by injecting 1×10^6 of mouse TNBC 4T1-FLuc cells into the BALB/cJ female mice, which was used to analyze the tumoral immunity. Mice developed tumors within 2 weeks post cells injection.
When TNBC tumor volume reached approximately 100 mm^3, 50 μg of Cyanine 5.5 (Cy5.5, Lumiprobe, Hunt Valley, MD) labelled anti-CD47 mAb or 1.5 nmole Cy5.5 (control, similar amount as labelled Cy5.5 in mAb) was intravenously (i.v.) administrated via tail vein for TNBC-targeting analysis. Mice were imaged at 24 hrs post mAb injection under IVIS Lumina Series III (PerkinElmer, Waltham, MA) with wavelength of 660 nm/710 nm (excitation/emission) and exposure time of 10 seconds. Inhalation anesthesia was induced by delivering 3.5-4.5% isoflurane in oxygen to mice via respiratory system (nose cone), then maintained with a concentration of 1-2% during imaging procedure.

MDA-MB-231 cells [4] = assay: Flow cytometry surface binding; set-up: species or system human; conditions: MDA-MB-231, mAb-AF647, flow cytometry
Protocol: (§3) The flow cytometry was conducted to analyze anti-CD47 mAb's binding rate to TNBC cells and quantify the immune cells using a BD LSRII flow cytometer (BD Biosciences, San Jose, CA). In surface binding analysis, the produced CD47 mAb was labelled with an Alexa Fluor™ 647 labelling kit (Life Technologies, part of Fisher) and used to stain MDA-MB-468, MDA-MB-231, 4T1, and 184B5 cells with 5 μg of mAb-AF647 per million of cells at room temperature for 30 mins (Ou, J.; et al. PLOS ONE 2018; Si, Y.; et al. Pharmaceutics 2020, 12:1079-1090; Ou, J.; et al. J Biol Eng 2019, 13:34). The harvested lymph nodes were dissociated with Tissue Dissociation/Single Cell Isolation Kit (101 Bio LLC, Sunnyvale, CA) following manufacturing procedure, and stained with Cy5 anti-CD69 antibody, APC anti-CD11c antibody, or PE/Cy7 anti-CD4 antibody (BioLegend, San Diego, CA) for flow cytometry analysis.

MDA-MB-468 cells [5] = assay: Flow cytometry surface binding; set-up: species or system human; conditions: MDA-MB-468, mAb-AF647, flow cytometry
Protocol: as §3

[6] = Whole blood analysis (HemaVet 950FS) in 4T1 xenograft BALB/cJ model; format: in vivo, mouse; conditions: 8 mg/kg, after two weeks, BALB/cJ 4T1 xenograft
Text: The blood samples were extracted by cardiac puncture for whole blood analysis using HemaVet 950FS (Drew Scientific, Miami Lakes, FL). The leukocytes (white blood cell, neutrophil, lymphocyte, monocyte, eosnophils), erythrocytes (red blood cell, hemoglobin, mean corpuscular hemoglobin), and thrombocytes (platelet) were titrated to analyze the general peripheral immune response.
as §2
The general immune response to anti-CD47 mAb was also tested using whole blood analysis and flow cytometry analysis of lymph nodes in the 4T1 xenograft BALB/cJ model (n=4). The mice carrying 50 mm^3 xenograft were treated with 8 mg/kg anti-CD47 mAb. After two weeks, blood was collected through cardiac puncture. […] The lymph nodes were also harvested and dissociated for flow cytometry analysis of fresh cells. […]

MDA-MB-468 cells [7] = assay: Live-cell confocal imaging of internalization; format: cell-based, human; conditions: AF647 labelled mAb
Text: Confocal microscopy imaging was collected to validate the targeting and internalization of anti-CD47 mAb in TNBC cells following our reported protocol (Si, Y.; et al. Cancer Gene Therapy. Cancer Gene Therapy 2020; Si, Y.; et al. Eng Life Sci 2021, 21:37-44; Ou, J.; et al. PLOS ONE 2018; Si, Y.; et al. Pharmaceutics 2020, 12:1079-1090; Si, Y.; et al. Biotechnol J 2019). Briefly, the MDA-MB-468 cells were stained with BacMam GFP Transduction Control, which expresses eGFP protein in cytoplasm, NucBlue Live ReadyProbes to stain nucleus, and AF647 labelled anti-CD47 mAb to target TNBC cells via surface receptor. The live-cell images were collected using a Nikon A1R-HD25 confocal microscope with a high-speed resonance scanner (Nikon USA, Melville, NY).

[8] = test system: normal breast 184B5 cells; assay: Flow cytometry surface binding; conditions: normal 184B5 cells, mAb-AF647, flow cytometry
Protocol: as §3

4T1 cells = assay: Flow cytometry surface binding; conditions: mouse TNBC 4T1, mAb-AF647, flow cytometry
Protocol: as §3

lymph node immune cells = assay: Flow cytometry analysis of immune cells in lymph nodes, 4T1 xenograft BALB/cJ model; format: in vivo, mouse; conditions: 8 mg/kg, BALB/cJ 4T1 xenograft
Protocol: as §3, §2
The general immune response to anti-CD47 mAb was also tested using whole blood analysis and flow cytometry analysis of lymph nodes in the 4T1 xenograft BALB/cJ model (n=4). The mice carrying 50 mm^3 xenograft were treated with 8 mg/kg anti-CD47 mAb. After two weeks, blood was collected through cardiac puncture. […] The lymph nodes were also harvested and dissociated for flow cytometry analysis of fresh cells. […] In the future, a full investigation of immune function in tumor microenvironment is needed in order to delineate the possible anti-TNBC immunity of this mAb.

[9] = test system: MDA-MB-231-FLuc xenograft; assay: In vivo anti-TNBC efficacy study; set-up: species or system mouse; unit not given here; conditions: 8 mg/kg i.v. Q4Dx4, terminal tumor; no significant difference to PBS group
Text: as §2
The TNBC MDA-MB-231-FLuc xenograft mice were treated with 16 mg/kg-BW of GC by intraperitoneal (IP) injection when tumor volume reached ˜50 mm^3. […] Tumor volume was measured using an electronic caliper and calculated as “width×width×length/2” in mm. Body weight was measured every other day. The in vivo treatment study was ended after 21-day treatment which was determined based on our previous ADC treatment animal study (Si, Y.; et al. Eng Life Sci 2021, 21:37-44; Ou, J.; et al. PLoS One 2018, 13:e0206246; Xu, N.; et al. Biochemical Engineering Journal 2019, 145:177-185). At the end of the experiment, mice were euthanized and the TNBC tumors were collected to measure the wet weight.

[10] = Toxicity in the efficacy study (body weight, H&E staining of organs); format: in vivo, mouse; conditions: 8 and 24 mg/kg ADC, 8 mg/kg mAb, PBS; Q4Dx4
Protocol: […] […] Tumor volume was measured using an electronic caliper and calculated as “width×width×length/2” in mm. Body weight was measured every other day. The in vivo treatment study was ended after 21-day treatment which was determined based on our previous ADC treatment animal study (Si, Y.; et al. Eng Life Sci 2021, 21:37-44; Ou, J.; et al. PLoS One 2018, 13:e0206246; Xu, N.; et al. Biochemical Engineering Journal 2019, 145:177-185). At the end of the experiment, mice were euthanized and the TNBC tumors were collected to measure the wet weight.
The IHC and H&E staining were performed. In IHC staining, the paraffin-embedded slides were immersed in xylene followed by 3% H2O2 in PBS, and blocked with 3% normal goat serum. The rabbit anti-mouse CD11b mAb (Cell Signaling, Danvers, MA) and HRP-conjugated goat anti-rabbit IgG mAb were used to stain the macrophage in tumor tissue. After color development with DAB chromogen, the slides were counterstained with hematoxylin and dehydrated in absolute ethanol. In H&E staining, the embedded normal organ slides were dewaxed, hydrated with 100%-0% ETOH, immersed in hematoxylin solution, and rinsed with tap water and eosin. After equilibration in ethanol, the stained slides were dipped in Xylene and mounted with cytoseal Xyl.

## COc1cc2cc(c1Cl)N(C)C(=O)C[C@H](OC(=O)[C@H](C)N(C)C(=O)CCS)[C@]1(C)O[C@H]1[C@H](C)[C@@H]1C[C@@](O)(NC(=O)O1)[C@H](OC)/C=C/C=C(\C)C2 [DM1, mertansine]
MDA-MB-231 cells [1]; MDA-MB-231, 25 nM
  cell viability: 94%
MDA-MB-231 cells [1]; MDA-MB-231, 50 nM
  cell viability: 72%
MDA-MB-231 cells [1]; MDA-MB-231, 100 nM
  cell viability: 53%
MDA-MB-231 cells [1]; MDA-MB-231, 200 nM
  cell viability: 54%
MDA-MB-231 cells [1]; MDA-MB-231, 72 hrs
  IC50: 47 nM
MDA-MB-468 cells [2]; MDA-MB-468, 25 nM
  cell viability: 56%
MDA-MB-468 cells [2]; MDA-MB-468, 50 nM
  cell viability: 37%
MDA-MB-468 cells [2]; MDA-MB-468, 100 nM
  cell viability: 32%
MDA-MB-468 cells [2]; MDA-MB-468, 200 nM
  cell viability: 34%
MDA-MB-468 cells [2]; MDA-MB-468, 72 hrs
  IC50: 21 nM

## Nc1ccn([C@@H]2O[C@H](CO)[C@@H](O)C2(F)F)c(=O)n1 [GC, gemcitabine]
CD47
  CD47 expression: increased

## Cyanine 5.5 [Cy5.5]
[3]; 24 hrs post i.v. injection, IVIS
  distribution in major organs (brain, heart, lung, spleen, kidney, liver): distributed in multiple locations such as brain, liver and kidney

B1: anti-CD47 mAb: anti-CD47 mAb (IgG2b/kappa) targeting the extracellular domain (Gln19-Glu141) of CD47; heavy chain SEQ ID NO:1, light chain SEQ ID NO:2 (antibody)
heavy: MLLGLKWVFFVVFYQGVHCEVQLVESGGGLVQPKGSLKLSCAASGFTFNTYAMNWVRQAPGKGLEWIARIRSKSNNYATYYADSMKDRFTISRDDSQSMLYLQMNNLKTEDTAMYYCVRPAQGAMDYWGHGTSVTVSSSKTTPPSVYPLAPGCGDTTGSSVTLGCLVKGYFPESVTVTWNSGSLSSSVHTFPALLQSGLYTMSSSVTVPSSTWPSQTVTCSVAHPASSTTVDKKLEPSGPISTINPCPPCKECHKCPAPNLEGGPSVFIFPPNIKDVLMISLTPKVTCVVVDVSEDDPDVQISWFVNNVEVHTAQTQTHREDYNSTIRVVSTLPIQHQDWMSGKEFKCKVNNKDLPSPIERTISKIKGLVRAPQVYILPPPAEQLSRKDVSLTCLVVGFNPGDISVEWTSNGHTEENYKDTAPVLDSDGSYFIYSKLNMKTSKWEKTDSFSCNVRHEGLKNYYLKKSFSRTPGK
light: MVFTPQILGLMLFWISASRGDIVLTQSPATLSVTPGDSVSLSCRASQRISNNLHWYQQKSHESPRLLIKYSSQSISGIPSRFSGSGSGTDFTLSINSVETEDFGMYFCQQSNAWPYTFGGGTKLEIRRADAAPTVSIFPPSSEQLTSGGASVVCFLNNFYPKDINVKWKIDGSERQNGVLNSWTDQDSKDSTYSMSSTLTLTKDEYERHNSYTCEATHKTSTSPIVKSFNRNEC
MDA-MB-231 cells [4]
  surface binding: 97.3%
MDA-MB-468 cells [5]
  surface binding: 98.9%
[6]
  leukocytes, erythrocytes and thrombocytes counts vs PBS control group: no obvious difference
[3]; mouse, in vivo, iv
  time to targeting and accumulation in TNBC tumor post i.v. injection: ≤ 24 h
MDA-MB-468 cells [7]
  time to internalization and localization in cytoplasm after mixing: ≤ 60 min
[8]
  surface binding: 4.39%
4T1 cells
  surface binding: 90.5%
Lymph node immune cells; PBS control 5.44%
  CD11c+ DC cells in lymph nodes: 8.49%
Lymph node immune cells; PBS control 6.55%
  CD69+ NK cells in lymph nodes: 10.3%
Lymph node immune cells; PBS control 63.8%
  CD4+ T cells in lymph nodes: 68.3%
[9]
  tumor weight: 307±76
[10]
  overall body weight change among the four groups: no obvious difference
